Measurements from patent US20240082345A1, “PEPTIDE COMPOSITION FOR PREVENTION OR TREATMENT OF ALZHEIMER'S DISEASE” (priority 2020, published 2024).
Non-standard residues stand in square brackets, D forms with d. Residues, ends and D or L forms follow the SMILES beside them.

Assays:
[1] = test system: LPS-treated BV-2 cells (microglial cell line); experiment: LPS-mediated cytokine production in BV-2 cells (qRT-PCR); assay type: cell-based; details: 20 ng/ml peptide + 2 ng/ml LPS co-treatment, 6 hours, vs LPS-treated cells (FIG. 3)
Experimental: Microglial cell line BV-2 cells were co-treated with 20 ng/ml of peptide (DD-5052) according to the invention and 2 ng/ml of LPS and cultured for 6 hours. Subsequently, the mRNA expression levels of proinflammatory cytokines IL-1(3 and TNF-α were measured using quantitative real-time polymerase chain reaction (PCR).
Specifically, total RNA was extracted from BV-2 cells using an RNA purification kit (Gene All, Seoul, Korea) according to the manufacturer's protocol. cDNA was synthesized using the Revert Aid First Strand cDNA Synthesis Kit (Thermo Scientific, Waltham, MA, USA) and qRT-PCR analysis was performed using the SYBR Green PCR Master Mix (Thermo Scientific, Waltham, MA, USA). The gene-specific primer sequences for IL-1(3 and TNF-α are shown in the following Table 4, and the mRNA levels of IL-1(3 and TNF-α were calculated relative to the control sample amount.

[2] = test system: wild-type mice; experiment: LPS-induced neuroinflammation (microgliosis) in brains of wild-type mice, Iba-1 immunohistochemical staining; assay type: in vivo, mouse
Experimental: Sections were incubated in 1% H2O2 for 15 minutes, and then put into a solution in which a mouse […] was diluted 1:400, and incubated at 4° C. overnight. After incubation with a biotinylated secondary antibody (diluted 1:200, Vector Laboratories, Inc., Burlingame, CA, USA) at room temperature for 1 hour, the sections were incubated with an avidin-biotin-peroxidase complex (diluted 1:100, vector) for 1 hour. Thereafter, 0.02% 3,3′-diaminobenzidine and 0.01% H2O2 were reacted for about 3 minutes. After each incubation stage, the sections were washed three times with PBS. Finally, the sections were mounted on gelatin-coated slides, and dehydrated while increasing an alcohol concentration and cleared in xylene.
Experiments were designed as illustrated in FIG. 4A to confirm microglia in the brains of wild-type mice, and immunohistochemical staining was performed using a goat-anti Iba-1 antibody (Ab5076,1:500) against Iba-1 which is a marker for microglia. Three-month-old wild-type mice were intraperitoneally injected (i.p.) with LPS (30 mg/kg/day)+vehicle (Hartmann dex) or DD-S052 (30 mg/kg/day)+LPS (30 mg/kg/day), and sacrificed 6 hours after the last injection of LPS. In this case, LPS and DD-S052 were loaded in separate syringes and injected separately into the right and left abdomen, respectively, and LPS was administered, and then DD-S052 was administered approximately 1 minute later. The half-life of LPS in mouse blood was approximately 2 to 4 minutes. 6 hours after administration of LPS and DD-S052, mouse brains were removed by cardiac perfusion fixation (4% PFA). Thereafter, the removed mouse brain was secondarily fixed in 4% PFA for 20 hours, and then immersed in a 30% sucrose solution. Subsequently, the mouse brains were frozen and sliced into a thickness of 30 μm.
Thereafter, immunohistochemical staining for Iba-1 was performed by the method described in Example 1-2 in order to confirm microglia in the mouse hippocampus, and the results are shown in FIG. 4B.
Microglia were confirmed in the substantia nigra pars compacta (SNc) by performing immunohistochemical staining for Iba-1. Wild-type mice were treated with LPS and DD-5052 in the same manner as in Example 5-1.

[3] = test system: 5XFAD mice; experiment: LPS-induced neuroinflammation in brains of 5XFAD Alzheimer's dementia mice, Iba-1 immunohistochemical staining; assay type: in vivo, mouse; details: 3-month-old 5XFAD mice, single dose 10 mg/kg + LPS 3 mg/kg, 48 hours, vs LPS+vehicle (FIG. 5B)
Experimental: Since LPS causes different degrees of inflammatory response depending on the strain of animals to be administered, LPS origin and the like, the animals were co-administered a single dose of 3 mg/kg of LPS and 10 mg/kg of DD-5052, and then sacrificed 48 hours later, 5XFAD mice were treated with 3 mg/kg of LPS by referencing a document which confirms the mortality rate by treating 5XFAD mice with 3 mg/kg of LPS (Barton, S. M.; Janve, V. A.; McClure, R.; Anderson, A.; Matsubara, J. A.; Gore, J. C.; Pham, W., Lipopolysaccharide Induced Opening of the Blood Brain Barrier on Aging 5XFAD Mouse Model. J Alzheimers Dis 2019, 67, (2), 503-513.) and a document which confirms that microgliosis reaches its maximum value from day 2 after the administration of LPS (Kondo, S.; Kohsaka, S.; Okabe, S., Long-term changes of spine dynamics and microglia after transient peripheral immune response triggered by LPS in vivo. […] 48 hours after administration of LPS and DD-5052, mouse brains were removed by cardiac perfusion fixation (4% PFA). Thereafter, the removed mouse brain was secondarily fixed in 4% PFA for 20 hours, and then immersed in a 30% sucrose solution. Subsequently, the mouse brains were frozen and sliced into a thickness of 30

[4] = test system: 5XFAD mice; experiment: Cognitive function experiment (spontaneous alternation, total arm entry) in 5XFAD mice; assay type: in vivo, mouse; details: 5.5-month-old 5XFAD mice, 2 mg/kg i.p. every other day for 4 weeks
Experimental: (§1) Then, cognitive function experiments were performed on each mouse, and then the mouse brain was fixed by cardiac perfusion fixation. Thereafter, the removed mouse brain was secondarily fixed in a 4% PFA solution for 20 hours, and then immersed in a 30% sucrose solution. Subsequently, the mouse brains were frozen and sliced into a thickness of 30 μm.
The cognitive function experiment is a novel experiment based on the instinctive behavior of rodents with the will to explore new environments, and is an experiment to evaluate the spatial perception ability of mice to choose a path different from the one which mice chose immediately before in a maze, and scores are given by dividing spontaneous alternation (the ratio of choosing a different path from the path chosen immediately before) by the total number of passages passed (total arm entry). The total arm entry during the experiment becomes an index to evaluate whether all groups have similar motility and whether the experiment is performed normally, apart from spatial perception ability.

[5] = test system: 5XFAD mice; experiment: Alzheimer's dementia-related pathology in 5XFAD mice, immunofluorescence staining (4G8, Iba-1, NeuN); assay type: in vivo, mouse
Experimental: as §1
The effects of DD-S052 on beta-amyloid accumulation, microgliosis, and neuronal loss were confirmed using an immunofluorescence staining method.
Specifically, in the case of immunofluorescence labeling, 4 to 5 coronal sections were obtained at subventricular zone (1.18 and 0.02 mm from bregma) and hippocampal formation (−1.58 and −3.80 mm from bregma) levels based on Paxinos and Franklin's “The Mouse Brain in Stereotaxic Coordinates.” Brain tissue was washed with PBS using the free-floating method in a Titramax 101 orbital shaker (Heidolph, Schwabach, Germany) and sections were incubated with PBS including 0.3% Triton X-100, 0.5 mg/mL bovine serum albumin (BSA) and primary antibodies as follows at 4° C. overnight: mouse anti-4G8 antibody (1:2,000; Cat. #800701, BioLegend, USA), mouse anti-NeuN antibody (1:100; Cat. #MAB377, Merck KGaA, Darmstadt, Germany), and goat anti-Iba-1 antibody (1:500; Cat. #ab5076, Abcam, Cambridge, UK).
Before being incubated with the anti-4G8 antibody, brain sections were incubated with 70% formic acid for antigen retrieval for 20 minutes, washed three times with PBS for 5 minutes each, and then incubated with a secondary antibody at room temperature for 50 minutes, and fluorescence signals were observed. As the secondary antibodies, the following antibodies were used: donkey Alexa 488-conjugated anti-mouse IgG (1:200; Cat. #A21202, Thermo Fisher Scientific Inc.), donkey Alexa 488-conjugated anti-goat IgG (1:200; Cat. #A11055, Thermo Fisher Scientific Inc.), and donkey Alexa 594-conjugated anti-rat IgG (1:200; Cat. #A21209, Thermo Fisher Scientific Inc.). All antibodies were diluted with PBS including 0.3% Triton X-100.

[6] = biological target: T1, tau K18 (Homo sapiens, UniProt P10636); experiment: Thioflavin T (ThT) assay of tau aggregation; assay type: biochemical; details: 0.5 mg/mL tau K18, 0.1 mg/mL heparin, DTT, PBS pH 7.4, 21 hours incubation; 10-1000 μg/mL (FIG. 7)
T1 construct: 0.5 mg/mL tau K18, 0.1 mg/mL heparin
Experimental: Thioflavin T (ThT) assay was performed to investigate the effect of DD-S052 and PEGylated DD-S052 on tau aggregation. ThT is known to bind to (3-sheet-rich protein aggregates to produce fluorescence. Synthetic tau K18 was dissolved in PBS (pH 7.4) in order to induce tau aggregation. The polymerization of tau proteins was induced by preparing a solution including PBS (pH 7.4), 0.5 mg/mL tau K18, 0.1 mg/mL heparin and 100 ρ, M DTT. DD-5052 at various concentrations (10, 20, 40, 100, and 1000 μg/mL), a 100 ρ, M methylene blue (MB) solution (positive control), and PEGylated DD-5052 were incubated together with an aggregation mixture for 21 hours. After incubation, a ThT solution (15 ρ, M in a 50 mM glycine buffer, pH 8.9) was added to a 96-well plate containing the sample and the aggregation mixture, and the resulting mixture was incubated for 3 hours. The fluorescence intensity of ThT was measured using a SpectraMax iD3 Multi-Mode Microplate Reader (Molecular Devices, San Jose, CA, USA) at excitation and emission wavelengths of 440 and 484 nm and quantified.

[7] = Artificial membrane permeation test simulating the blood-brain barrier (PAMPA-096), LC-MS / ESI-FT-ICR-MS; assay type: in vitro ADME; details: for MS peak intensity, Before / LogPe: 100 μg/ml peptide; for LogPe: 18 hr, room temperature, PBS; for MS peak intensity, Acceptor / MS peak intensity, Donor: after 18 hr
Experimental: In order to confirm whether the peptide DD-S052 of the present invention passes through the blood-brain barrier (BBB), an artificial membrane permeation test simulating the blood-brain barrier was performed using a parallel artificial membrane permeability assay kit (PAMPA-096; BioAssay Systems).
Analysis conditions are shown in the following Table 5, and analysis was performed by liquid chromatography-mass spectrometry (LC-MS).
Quantitative analysis was performed using electrospray ionization coupled to Fourier transform ion cyclotron resonance mass spectrometry (ESI-FT-ICR-MS), and the analysis conditions are shown in the following Table 6.
The intensity value of a peak corresponding to the test material was used according to the Log Pe function described in an existing document (Evaluation of the reproducibility of Parallel Artificial Membrane Permeation Assays PAMPA, Sigma Aldrich), and the value calculated by the Log Pe function was used to predict the degree of permeation by referencing an existing document (Brian. J et al. Predicting a Drug's Membrane Permeability: A Computational Model Validated With in Vitro Permeability Assay Data. J Phys Chem B. 2017 May 25;121(20):5228-5237).

T1 sequence (P10636 561-685 limits assumed): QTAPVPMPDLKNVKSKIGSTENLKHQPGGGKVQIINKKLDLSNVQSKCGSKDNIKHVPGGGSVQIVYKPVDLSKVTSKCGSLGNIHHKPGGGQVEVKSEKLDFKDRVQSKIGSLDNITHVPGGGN

Molecule: CC(C)C[C@@H](NC(=O)[C@H](N)CCCCN)C(=O)N[C@H](CCCNC(=N)N)C(=O)N[C@@H](C(=O)N[C@H](CCCCN)C(=O)N[C@H](CC(C)C)C(=O)N[C@H](CCCNC(=N)N)C(=O)N[C@H](CCCNC(=N)N)C(=O)N[C@H](Cc1ccc(O)cc1)C(=O)N[C@H](CC(C)C)C(=O)N[C@H](CCCNC(=N)N)C(N)=O)C(C)C [DD-S052, KLRVKLRRYLR-NH2 (AcOH)] (H-[dK][dL][dR][dV][dK][dL][dR][dR][dY][dL][dR]-NH2; N-terminus assumed)
- mRNA expression of IL-1(3 induced by LPS) [1]: suppressed
- mRNA expression of TNF-α induced by LPS [1]: suppressed
- microglial morphology in hippocampus ([2]; 3-month-old wild-type mice, 30 mg/kg/day i.p. + LPS 30 mg/kg/day i.p., 6 hours after last LPS (FIG. 4B)): tendency to change from an amoeboid shape to a ramified shape
- number of Iba-1-positive cells in hippocampus ([2]; 3-month-old wild-type mice, 30 mg/kg/day i.p. + LPS 30 mg/kg/day, vs LPS+vehicle (Hartmann dex), p<0.001 (FIG. 4C)): remarkably decreased
- microglial morphology in substantia nigra pars compacta (SNc) ([2]; wild-type mice, 30 mg/kg/day i.p. + LPS 30 mg/kg/day (FIG. 4D)): tendency to change from an amoeboid shape to a ramified shape
- Iba-1(+) microglia in the SNc ([2]; wild-type mice, 30 mg/kg/day i.p. + LPS 30 mg/kg/day, vs LPS+vehicle (FIG. 4D)): tended to decrease
- Iba-1(+) microglia in cerebral cortex and hippocampus [3]: decreased
- total arm entry ([4]; 8-minute session, vs vehicle-treated 5XFAD, no significance between groups): increased
- spontaneous alternation ([4]; vs vehicle-treated 5XFAD (FIG. 6B)): increased
- number of NeuN(+) cells (neuronal loss) ([5]; 2 mg/kg i.p. every other day for 4 weeks): increased
- 4G8(+) region (beta-amyloid accumulation) ([5]; 2 mg/kg i.p. every other day for 4 weeks (FIG. 6C)): reduced
- number of Iba-1(+) cells (microgliosis) ([5]; 2 mg/kg i.p. every other day for 4 weeks (FIG. 6D)): reduced
- fluorescence intensity of thioflavin T (ThT) (tau K18 aggregation) [6]: reduced
- MS peak intensity, Before ([7]; peak at 375 m/z): 1829478400
- LogPe ([7]; peak at 375 m/z): −5.405
- MS peak intensity, Acceptor ([7]; peak at 375 m/z): 717305173
- MS peak intensity, Donor ([7]; peak at 375 m/z): 909677952
- MS peak intensity, Before ([7]; peak at 512 m/z): 1667509760
- LogPe ([7]; peak at 512 m/z): −5.362
- MS peak intensity, Acceptor ([7]; peak at 512 m/z): 717488192
- MS peak intensity, Donor ([7]; peak at 512 m/z): 867968256

Molecule: EG-KLRVKLRRYLR-NH2 (AcOH) (not fully specified; N-terminal PEG, C-terminal amide, acetate salt; DD-S052P; BINDING (11) amine group (NH2) is added to C-terminus of polypeptide.; SITE (9) trifluoroacetic acid (TFA) at a terminus of the 9th amino acid from the N terminus of a peptide is substituted with an acetate salt.; SITE (1) peptide N-terminus PEGylation)
- fluorescence intensity of thioflavin T (ThT) (tau K18 aggregation) [6]: reduced
